# Values quoted from earlier work as cited in PubChem BioAssay AID1259409 (Chemical Carcinogenesis Research Information System (CCRIS), 2018).
# Test system: rodent chemically induced tumor inhibition, incidence and multiplicity
# Assay: CCRIS tumor inhibitor studies
# Details: Dose [Inhibitor]: 0, Route [Inhibitor]: ORAL, Species: RAT, Promoter: NONE USED
smiles,measurement,setting,value
CCOC1=C(O)C(=O)O[C@@H]1[C@@H](O)CO,"tumour outcome (control, treated, inhibition, significance)","Carcinogen: 2-AMINO-1-METHYL-6-PHENYLIMIDAZO[4,5-B]PYRIDINE, 105650-23-5, 1% IN DIET FOR 52 WK CONCURRENTLY WITH CARCINOGEN TREATMENT (STUDY DURATION: 52 WK), Strain/Sex: F344/FEMALE, Target Tissue: Type of Lesion: LARGE INTESTINE: ADENOMA OR CARCINOMA, Dose [Carcinogen]: 0.02% IN DIET FOR 52 WK","2/18 (11%), 3/18 (17%), -55%, not significant"
same,"tumour outcome (control, treated, inhibition, significance)","Carcinogen: 2-AMINO-1-METHYL-6-PHENYLIMIDAZO[4,5-B]PYRIDINE, 105650-23-5, 1% IN DIET FOR 52 WK CONCURRENTLY WITH CARCINOGEN TREATMENT (STUDY DURATION: 52 WK), Strain/Sex: F344/FEMALE, Target Tissue: Type of Lesion: MAMMARY GLAND: ADENOCARCINOMA, Dose [Carcinogen]: 0.02% IN DIET FOR 52 WK","8/20 (40%), 6/21 (29%), 28%, not significant"
same,"tumour outcome (control, treated, inhibition, significance)","Carcinogen: DIETHYLNITROSAMINE, 55-18-5, N-METHYL-N-NITROSAUREA, 684-93-5, N-BUTYL-N-(4-HYDROXYBUTYL)NITROSAMINE, 3817-11-6, DIMETHY, Carcinogen: DIETHYLNITROSAMINE, 55-18-5, N-METHYL-N-NITROSAUREA, 684-93-5, N-BUTYL-N-(4-HYDROXYBUTYL)NITROSAMINE, 3817-11-6, DIMETHY, 1% IN THE DIET FOR 24 WK BEGINNING 1 DAY POST CARCINOGEN TREATMENT (STUDY DURATION: 28 WK), Strain/Sex: F344/MALE, Target Tissue: Type of Lesion: SMALL INTESTINE: ADENOMA, Dose [Carcinogen]: 100 MG/KG BW DEN ONCE FOLLOWED BY 20 MG/KG BW MNU 4 TIMES AND 0.05% BBN IN DRINKING WATER DURING FIRST 2 WK THEN 40 MG/K","33%, 13%, 60%, not significant"
same,"tumour outcome (control, treated, inhibition, significance)","Carcinogen: DIETHYLNITROSAMINE, 55-18-5, N-METHYL-N-NITROSOUREA, 684-93-4, N-BUTYL-N-(4-HYDROXYBUTYL)NITROSAMINE, 3817-11-6, DIMETHY, Carcinogen: DIETHYLNITROSAMINE, 55-18-5, N-METHYL-N-NITROSOUREA, 684-93-4, N-BUTYL-N-(4-HYDROXYBUTYL)NITROSAMINE, 3817-11-6, DIMETHY, 1% IN THE DIET FOR 24 WK BEGINNING 1 DAY POST CARCINOGEN TREATMENT (STUDY DURATION: 28 WK), Strain/Sex: F344/MALE, Target Tissue: Type of Lesion: URINARY BLADDER: CARCINOMA, Dose [Carcinogen]: 100 MG/KG BW DEN ONCE FOLLOWED BY 20 MG/KG BW MNU 4 TIMES AND 0.05% BBN IN DRINKING WATER DURING FIRST 2 WK THEN 40 MG/K","7%, 0%, 100%, not significant"
same,"tumour outcome (control, treated, inhibition, significance)","Carcinogen: DIETHYLNITROSAMINE, 55-18-5, N-METHYL-N-NITROSOUREA, 684-93-5, N-BUTYL-N-(4-HYDROXYBUTYL)NITROSAMINE, 3817-11-6, DIMETHY, Carcinogen: DIETHYLNITROSAMINE, 55-18-5, N-METHYL-N-NITROSOUREA, 684-93-5, N-BUTYL-N-(4-HYDROXYBUTYL)NITROSAMINE, 3817-11-6, DIMETHY, 1% IN DIET FOR 24 WK BEGINNING 1 DAY POST CARCINOGEN TREATMENT (STUDY DURATION: 28 WK), Strain/Sex: F344/MALE, Target Tissue: Type of Lesion: THYROID: CARCINOMA, Dose [Carcinogen]: 100 MG/KG BW DEN ONCE FOLLOWED BY 20 MG/KG BW MNU 4 TIMES AND 0.05% BBN IN DRINKING WATER DURING FIRST 2 WK THEN 40 MG/K","7%, 0%, 100%, not significant"
same,"tumour outcome (control, treated, inhibition, significance)","Carcinogen: DIETHYLNITROSAMINE, 55-18-5, N-METHYL-N-NITROSOUREA, 684-93-5, N-BUTYL-N-(4-HYDROXYBUTYL)NITROSAMINE, 3817-11-6, DIMETHY, Carcinogen: DIETHYLNITROSAMINE, 55-18-5, N-METHYL-N-NITROSOUREA, 684-93-5, N-BUTYL-N-(4-HYDROXYBUTYL)NITROSAMINE, 3817-11-6, DIMETHY, 1% IN DIET FOR 30 DAYS BEGINNING 1 DAY PRIOR TO CARCINOGEN TREATMENT (STUDY DURATION: 28 WK), Strain/Sex: F344/MALE, Target Tissue: Type of Lesion: URINARY BLADDER: PAPILLOMA, Dose [Carcinogen]: 100 MG/KG BW DEN ONCE FOLLOWED BY 20 MG/KG BW MNU 4 TIMES AND 0.05% BBN IN DRINKING WATER DURING FIRST 2 WK THEN 40 MG/K","7%, 7%, 0%, not significant"
same,"tumour outcome (control, treated, inhibition, significance)","Carcinogen: DIETHYLNITROSAMINE, 55-18-5, N-METHYL-N-NITROSOUREA, 684-93-5, N-BUTYL-N-(4-HYDROXYBUTYL)NITROSAMINE, 3817-11-6, DIMETHY, Carcinogen: DIETHYLNITROSAMINE, 55-18-5, N-METHYL-N-NITROSOUREA, 684-93-5, N-BUTYL-N-(4-HYDROXYBUTYL)NITROSAMINE, 3817-11-6, DIMETHY, 1% IN THE DIET FOR 24 WK BEGINNING 1 DAY POST CARCINOGEN TREATMENT ( STUDY DURATION: 28 WK), Strain/Sex: F344/MALE, Target Tissue: Type of Lesion: LARGE INTESTINE: CARCINOMA, Dose [Carcinogen]: 100 MG/KG BW DEN ONCE FOLLOWED BY 20 MG/KG BW MNU 4 TIMES AND 0.05% BBN IN DRINKING WATER DURING FIRST 2 WK THEN 40 MG/K","7%, 13%, -86%, not significant"
same,"tumour outcome (control, treated, inhibition, significance)","Carcinogen: DIETHYLNITROSAMINE, 55-18-5, N-METHYL-N-NITROSOUREA, 684-93-5, N-BUTYL-N-(4-HYDROXYBUTYL)NITROSAMINE, 3817-11-6, DIMETHY, Carcinogen: DIETHYLNITROSAMINE, 55-18-5, N-METHYL-N-NITROSOUREA, 684-93-5, N-BUTYL-N-(4-HYDROXYBUTYL)NITROSAMINE, 3817-11-6, DIMETHY, 1% IN THE DIET FOR 24 WK BEGINNING 1 DAY POST CARCINOGEN TREATMENT (STUDY DURATION: 28 WK), Strain/Sex: F344/MALE, Target Tissue: Type of Lesion: LARGE INTESTINE: ADENOMA, Dose [Carcinogen]: 100 MG/KG BW DEN ONCE FOLLOWED BY 20 MG/KG BW MNU 4 TIMES AND 0.05% BBN IN DRINKING WATER DURING FIRST 2 WK THEN 40 MG/K","27%, 47%, -74%, not significant"
